Key:
[1] = tested on: conscious Wistar rats; test: Diuretic effect in vivo, urine volume in conscious rats; conditions: oral dose of 10 mg/kg, urine volume after 6 hours, relative to control group
Description: The diuretic effect is tested on conscious Wistar rats. The animals are subjected to fasting for 18 h before the experiment and put on a diet of water 90 minutes before the experiment. The product under test is then administered orally by force-feeding, the rat is placed in a metabolism cage and the volume of urine is measured after 6 hours. The volume is expressed in relation to the volume measured in a control group of rats.

[2] = tested on: Aorta rings without endothelium; test: NO-donor activity in vitro, relaxation of noradrenaline-contracted aorta rings; conditions: aorta rings without endothelium contracted by noradrenaline (0.1-0.3 μM); read-out: IC50 (relaxant effect)
Description: Aorta rings without endothelium are used. After a first contraction induced by 60 mM KCl to characterise the sensitivity of the ring, and washing, a stable contraction is induced by noradrenaline (0.1-0.3 μM) in the presence or absence of ODQ. A cumulative concentration series is applied and the activity of the product under test is calculated by an IC50 (dose that inhibits the maximum effect by 50%).

[3] = tested on: SD rats anaesthetised with pentobarbital; test: NO-donor activity in vivo, reduction of arterial pressure in anaesthetised rats; conditions: i.v. dose of 100 μg/kg
Description: The NO-donor effect of the compound is evaluated by the reduction in pressure caused in SD rats anaesthetised with pentobarbital. After stabilisation of the arterial pressure, the product under test is administered i.v. in increasing doses.

| SMILES | increase of the excretion of urine [1] [%] | IC50 [2] [nM] | reduction of the arterial pressure [3] [%] |
| --- | --- | --- | --- |
| CCN(CC)/[N+]([O-])=N/OCOC(=O)c1cccc(CNS(=O)(=O)c2cc(C(=O)NN3c4ccc([N+](=O)[O-])cc4CC3C)ccc2Cl)c1 (stereo not drawn) [Example 1] | 108 | 120 | 56 |
| CCN(CC)/[N+]([O-])=N/OCOC(=O)c1ccc(CNS(=O)(=O)c2cc(C(=O)NN3c4ccccc4C[C@H]3C)ccc2Cl)cc1 [Example 10, ({[(1Z)-2,2-diethyl-1-oxidohydrazono]amino}oxy)methyl 4-({[(2-chloro-5-{[(2R)-2-methyl-2,3-dihydro-1H-indol-1-yl]carbamoyl}phenyl)-sulphonyl]amino}methyl)benzoate] | 248 | 40 | 55 |

— patent publication US8288433B2, “Diazeniumdiolate compounds, a process for their preparation and pharmaceutical compositions containing them” (Les Laboratoires Servier, priority 2007, dated 2012)
